{
  "source": "patent US20190142800A1",
  "about": "“SYNERGISTIC ANTIFUNGAL COMPOSITIONS AND METHODS THEREOF” (VYOME THERAPEUTICS LIMITED, priority 2016, published 2019)",
  "key": {"[1]": {"system": "Trichophyton rubrum (ATCC-28188)", "assay": "Checkerboard assay of fatty acid/ester with antifungals on Trichophyton rubrum (ATCC 28188)", "assay_type": "cell-based", "design": "key to FIC index: FIC index = sum of FICs; FIC = agent conc in well / agent MIC", "settings": "for MIC: Trichophyton rubrum, ATCC28188, agent alone", "experimental": "(§1) The synergy is measured by determining the fractional inhibitory concentration (FIC) value of the combination. This experimental set up, called checkerboard method, allows measurement of a desired effect (inhibition of fungal growth in this case) at different combinations of various concentrations of the two agents (antifungal agent and fatty acid/ester). […] No agent is added to the penultimate column on the right and the bottom row. The final column on the right is used for growth control (only inoculum in broth) and sterility control (broth alone, no inoculum). […] FIC value for each agent in a particular well of the checkerboard layout was calculated by dividing the agent concentration in that well by the established MIC value of the agent against the test organism (Hsieh et al., Synergy assessed by checkerboard: A critical Analysis, Diagn. Microbiol. Infect Dis. (1993) 16:343-349). FIC values for both agents in a particular well were calculated in this way followed by determination of the FIC index (sum of the FICs of each drug in the concerned well). […] Agents Chemother. (2010) 54(2): 602-609].\n(§2) Using the checkerboard layout experimental setup described above (FIG. 1A), various medium-chain fatty acids were tested for their ability to potentiate the activity of a known antifungal agent. Concentrations above and below the MIC of each test agent were tested using serial dilution. The same procedure was expanded to test combinations of various medium-chain fatty acids C-1 to C-14 (such caprylic acid, undecylenic acid and lauric acid) and esters thereof, with antifungal agents from various classes including azoles, allylamines, benzylamines, zinc pyrithione and piroctone olamine against both susceptible and resistant Trichophyton spp. (filamentous fungus) and Candida spp. (yeast).\n(§3) Potentiation of the activity of antimycotic agents using ester derivatives of medium chain fatty acids was tested in a standard, well accepted in vitro assay system to check for synergy. This experimental set up, called checkerboard method, allows measurement of a desired effect (inhibition of fungal growth in this case) at different combinations of various concentrations of two agents. A chosen medium chain fatty acid (C-1 to C-14) or its ester derivative was tested for its ability to potentiate the activity of a known antifungal agent (various classes) using the checkerboard layout. Various concentrations above and below the MIC of each test agent were tested using serial dilution in Sabouraud dextrose broth. […] FIC value for a drug in a particular well of the checkerboard layout is calculated by dividing the drug concentration in that well by the established MIC value of the drug against the test organism (Hsieh et al., Synergy assessed by checkerboard: A critical Analysis, Diagn. Microbiol. Infect Dis. (1993) 16:343-349). FIC values for both test agents in a particular well are calculated in this way followed by determination of the FIC index (sum of the FICs of each drug in the concerned well)."}, "[2]": {"system": "azole resistant C. albicans MTCC 227", "assay": "Checkerboard assay on azole resistant C. albicans MTCC 227", "assay_type": "cell-based, Candida albicans", "settings": "for MIC: Candida albicans, MTCC227, agent alone", "experimental": "as §1, with “FIC” for “FIC value for each agent in a particular well of the checkerboard layout was calculated by dividing the agent concentration in that well by the established MIC value of the agent against the test organism (Hsieh et al., Synergy assessed by checkerboard: A critical Analysis, Diagn. Microbiol. Infect Dis. (1993) 16:343-349). FIC”, “Chemother.” for “Chemother. (2010) 54(2): 602-609].”\nas §2\nas §3, with “FIC” for “FIC value for a drug in a particular well of the checkerboard layout is calculated by dividing the drug concentration in that well by the established MIC value of the drug against the test organism (Hsieh et al., Synergy assessed by checkerboard: A critical Analysis, Diagn. Microbiol. Infect Dis. (1993) 16:343-349). FIC”"}, "[3]": {"settings": "agent's MIC in combination antifungal + caprylic acid (partner: other agent of same combination no.)"}, "[4]": {"settings": "agent's MIC in combination antifungal + glyceryl monocaprylate (partner: other agent of same combination no.)"}, "[5]": {"settings": "agent's MIC in combination antifungal + lauric acid (partner: other agent of same combination no.)"}, "[6]": {"settings": "agent's MIC in combination antifungal + propylene glycol monocaprylate (partner: other agent of same combination no.)"}, "[7]": {"settings": "agent's MIC in combination antifungal + propylene glycol monolaurate (partner: other agent of same combination no.)"}, "[8]": {"settings": "agent's MIC in combination antifungal + undecylenic acid (partner: other agent of same combination no.)"}, "[9]": {"settings": "antifungal in combination with caprylic acid"}, "[10]": {"settings": "antifungal in combination with glyceryl monocaprylate"}, "[11]": {"settings": "antifungal in combination with lauric acid"}, "[12]": {"settings": "antifungal in combination with propylene glycol monocaprylate"}, "[13]": {"settings": "antifungal in combination with propylene glycol monolaurate"}, "[14]": {"settings": "antifungal in combination with undecylenic acid"}, "[15]": {"settings": "combination antifungal + caprylic acid"}, "[16]": {"settings": "combination antifungal + glyceryl monocaprylate"}, "[17]": {"settings": "combination antifungal + lauric acid"}, "[18]": {"settings": "combination antifungal + propylene glycol monocaprylate"}, "[19]": {"settings": "combination antifungal + propylene glycol monolaurate"}, "[20]": {"settings": "combination antifungal + undecylenic acid"}},
  "data": [
    {"compound": "CCC(C)n1ncn(-c2ccc(N3CCN(c4ccc(OCC5COC(Cn6cncn6)(c6ccc(Cl)cc6Cl)O5)cc4)CC3)cc2)c1=O", "note": "(stereo not drawn) [Itraconazole]", "values": [
      {"measurement": "MIC", "setting": "[1]; Table 1, caprylic acid series", "value": 0.125, "unit": "µg/mL"},
      {"measurement": "MIC", "setting": "[1]; Table 2, propylene glycol monocaprylate series", "value": 0.125, "unit": "µg/mL"},
      {"measurement": "MIC", "setting": "[1]; Table 3, glyceryl monocaprylate series", "value": 0.125, "unit": "µg/mL"},
      {"measurement": "MIC", "setting": "[1]; Table 4, undecylenic acid (C11) series", "value": 0.125, "unit": "µg/mL"},
      {"measurement": "MIC", "setting": "[1]; Table 5, lauric acid (C12) series", "value": 0.125, "unit": "µg/mL"},
      {"measurement": "MIC", "setting": "[1]; Table 6, propylene glycol monolaurate series", "value": 0.125, "unit": "µg/mL"},
      {"measurement": "Combination MIC", "setting": "[1]; [3]", "value": 0.0312, "unit": "µg/mL"},
      {"measurement": "Combination MIC", "setting": "[1]; [4]", "value": 0.007, "unit": "µg/mL"},
      {"measurement": "Combination MIC", "setting": "[1]; [5]", "value": 0.06, "unit": "µg/mL"},
      {"measurement": "Combination MIC", "setting": "[1]; [6]", "value": 0.015, "unit": "µg/mL"},
      {"measurement": "Combination MIC", "setting": "[1]; [7]", "value": 0.06, "unit": "µg/mL"},
      {"measurement": "Combination MIC", "setting": "[1]; [8]", "value": 0.0312, "unit": "µg/mL"},
      {"measurement": "FIC index", "setting": "[1]; [9]", "value": 0.5},
      {"measurement": "Interaction", "setting": "[1]; [9]", "value": "Synergistic (Combinations that gave FIC indices less than 1 were designated “synergistic”)"},
      {"measurement": "FIC index", "setting": "[1]; [10]", "value": 0.562},
      {"measurement": "Interaction", "setting": "[1]; [10]", "value": "Synergistic (Combinations that gave FIC indices less than 1 were designated “synergistic”)"},
      {"measurement": "FIC index", "setting": "[1]; [11]", "value": 0.75},
      {"measurement": "Interaction", "setting": "[1]; [11]", "value": "Synergistic (Combinations that gave FIC indices less than 1 were designated “synergistic”)"},
      {"measurement": "FIC index", "setting": "[1]; [12]", "value": 0.625},
      {"measurement": "Interaction", "setting": "[1]; [12]", "value": "Synergistic (Combinations that gave FIC indices less than 1 were designated “synergistic”)"},
      {"measurement": "FIC index", "setting": "[1]; [13]", "value": 0.6},
      {"measurement": "Interaction", "setting": "[1]; [13]", "value": "Synergistic (Combinations that gave FIC indices less than 1 were designated “synergistic”)"},
      {"measurement": "FIC index", "setting": "[1]; [14]", "value": 0.75},
      {"measurement": "Interaction", "setting": "[1]; [14]", "value": "Synergistic (Combinations that gave FIC indices less than 1 were designated “synergistic”)"},
      {"measurement": "FIC", "setting": "[1]; [15]", "value": 0.25},
      {"measurement": "FIC", "setting": "[1]; [16]", "value": 0.0625},
      {"measurement": "FIC", "setting": "[1]; [17]", "value": 0.5},
      {"measurement": "FIC", "setting": "[1]; [18]", "value": 0.125},
      {"measurement": "FIC", "setting": "[1]; [19]", "value": 0.48},
      {"measurement": "FIC", "setting": "[1]; [20]", "value": 0.25},
      {"measurement": "MIC", "setting": "[2]; Table 9, caprylic acid (C8) series", "value": 32, "unit": "µg/mL"},
      {"measurement": "MIC", "setting": "[2]; Table 10, propylene glycol monocaprylate series", "value": 64, "unit": "µg/mL"},
      {"measurement": "MIC", "setting": "[2]; Table 11, glyceryl monocaprylate series", "value": 32, "unit": "µg/mL"},
      {"measurement": "MIC", "setting": "[2]; Table 12, undecylenic acid (C11) series", "value": 32, "unit": "µg/mL"},
      {"measurement": "MIC", "setting": "[2]; Table 13, lauric acid (C12) series", "value": 32, "unit": "µg/mL"},
      {"measurement": "MIC", "setting": "[2]; Table 14, propylene glycol monolaurate series", "value": 32, "unit": "µg/mL"},
      {"measurement": "Combination MIC", "setting": "[2]; [3]", "value": 4, "unit": "µg/mL"},
      {"measurement": "Combination MIC", "setting": "[2]; [4]", "value": 4, "unit": "µg/mL"},
      {"measurement": "Combination MIC", "setting": "[2]; [5]", "value": 0.125, "unit": "µg/mL"},
      {"measurement": "Combination MIC", "setting": "[2]; [6]", "value": 0.125, "unit": "µg/mL"},
      {"measurement": "Combination MIC", "setting": "[2]; [7]", "value": 2, "unit": "µg/mL"},
      {"measurement": "Combination MIC", "setting": "[2]; [8]", "value": 0.125, "unit": "µg/mL"},
      {"measurement": "FIC index", "setting": "[2]; [9]", "value": 0.25},
      {"measurement": "Interaction", "setting": "[2]; [9]", "value": "Synergistic (Combinations that gave FIC indices less than 1 were designated “synergistic”)"},
      {"measurement": "FIC index", "setting": "[2]; [10]", "value": 0.375},
      {"measurement": "Interaction", "setting": "[2]; [10]", "value": "Synergistic (Combinations that gave FIC indices less than 1 were designated “synergistic”)"},
      {"measurement": "FIC index", "setting": "[2]; [11]", "value": 0.253},
      {"measurement": "Interaction", "setting": "[2]; [11]", "value": "Synergistic (Combinations that gave FIC indices less than 1 were designated “synergistic”)"},
      {"measurement": "FIC index", "setting": "[2]; [12]", "value": 0.064},
      {"measurement": "Interaction", "setting": "[2]; [12]", "value": "Synergistic (Combinations that gave FIC indices less than 1 were designated “synergistic”)"},
      {"measurement": "FIC index", "setting": "[2]; [13]", "value": 0.07},
      {"measurement": "Interaction", "setting": "[2]; [13]", "value": "Synergistic (Combinations that gave FIC indices less than 1 were designated “synergistic”)"},
      {"measurement": "FIC index", "setting": "[2]; [14]", "value": 0.066},
      {"measurement": "Interaction", "setting": "[2]; [14]", "value": "Synergistic (Combinations that gave FIC indices less than 1 were designated “synergistic”)"},
      {"measurement": "FIC", "setting": "[2]; [15]", "value": 0.125},
      {"measurement": "FIC", "setting": "[2]; [16]", "value": 0.125},
      {"measurement": "FIC", "setting": "[2]; [17]", "value": 0.003},
      {"measurement": "FIC", "setting": "[2]; [18]", "value": 0.002},
      {"measurement": "FIC", "setting": "[2]; [19]", "value": 0.0625},
      {"measurement": "FIC", "setting": "[2]; [20]", "value": 0.003}
    ]}
  ]
}
